Measured values reported in patent US10562898B2, “Substituted benzenesulfonamides as inhibitors of alpha-4 beta-7 integrin activity” (EA PHARMA CO., LTD., priority 2016, dated 2020).

What follows are molecules tested against T1, α4β7 integrin (Homo sapiens, UniProt P13612+P26010) (assay: MAdCAM-1/α4β7 integrin binding inhibitory activity evaluation test (RPMI-8866 cells binding to MAdCAM-1/Fc)). Conditions: recombinant mouse MAdCAM-1/Fc, no serum.
T1 construct: a cell line RPMI-8866, which is known to express α4β7 integrin; endogenous in cells; host or cells: RPMI-8866 (human B cell line)
T1 sequence (P13612 34-1032): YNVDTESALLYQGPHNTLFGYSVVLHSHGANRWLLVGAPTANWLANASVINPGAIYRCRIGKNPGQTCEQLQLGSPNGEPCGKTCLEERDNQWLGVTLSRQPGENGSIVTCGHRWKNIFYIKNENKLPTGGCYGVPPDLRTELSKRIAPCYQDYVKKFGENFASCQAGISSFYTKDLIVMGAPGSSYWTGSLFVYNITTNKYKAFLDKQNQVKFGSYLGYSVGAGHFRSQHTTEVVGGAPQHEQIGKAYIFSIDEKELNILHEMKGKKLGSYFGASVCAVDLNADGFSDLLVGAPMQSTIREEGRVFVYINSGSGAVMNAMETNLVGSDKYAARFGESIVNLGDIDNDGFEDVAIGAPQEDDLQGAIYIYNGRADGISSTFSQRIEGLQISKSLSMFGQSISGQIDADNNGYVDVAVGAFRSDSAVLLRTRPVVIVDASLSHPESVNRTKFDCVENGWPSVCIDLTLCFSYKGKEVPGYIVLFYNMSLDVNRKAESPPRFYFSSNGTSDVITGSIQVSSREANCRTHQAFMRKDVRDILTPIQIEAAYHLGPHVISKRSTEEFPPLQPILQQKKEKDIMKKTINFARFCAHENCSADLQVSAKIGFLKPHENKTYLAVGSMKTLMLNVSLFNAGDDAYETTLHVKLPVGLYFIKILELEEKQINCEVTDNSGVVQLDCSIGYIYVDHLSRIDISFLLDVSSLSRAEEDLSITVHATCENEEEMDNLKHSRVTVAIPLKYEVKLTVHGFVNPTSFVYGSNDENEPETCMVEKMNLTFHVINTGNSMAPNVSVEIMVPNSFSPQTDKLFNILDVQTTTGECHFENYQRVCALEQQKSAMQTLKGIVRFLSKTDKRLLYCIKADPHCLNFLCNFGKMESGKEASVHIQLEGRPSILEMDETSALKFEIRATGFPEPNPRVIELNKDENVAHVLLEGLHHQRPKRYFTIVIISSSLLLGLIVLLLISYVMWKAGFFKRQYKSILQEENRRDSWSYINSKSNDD
T1 sequence (P26010 20-798): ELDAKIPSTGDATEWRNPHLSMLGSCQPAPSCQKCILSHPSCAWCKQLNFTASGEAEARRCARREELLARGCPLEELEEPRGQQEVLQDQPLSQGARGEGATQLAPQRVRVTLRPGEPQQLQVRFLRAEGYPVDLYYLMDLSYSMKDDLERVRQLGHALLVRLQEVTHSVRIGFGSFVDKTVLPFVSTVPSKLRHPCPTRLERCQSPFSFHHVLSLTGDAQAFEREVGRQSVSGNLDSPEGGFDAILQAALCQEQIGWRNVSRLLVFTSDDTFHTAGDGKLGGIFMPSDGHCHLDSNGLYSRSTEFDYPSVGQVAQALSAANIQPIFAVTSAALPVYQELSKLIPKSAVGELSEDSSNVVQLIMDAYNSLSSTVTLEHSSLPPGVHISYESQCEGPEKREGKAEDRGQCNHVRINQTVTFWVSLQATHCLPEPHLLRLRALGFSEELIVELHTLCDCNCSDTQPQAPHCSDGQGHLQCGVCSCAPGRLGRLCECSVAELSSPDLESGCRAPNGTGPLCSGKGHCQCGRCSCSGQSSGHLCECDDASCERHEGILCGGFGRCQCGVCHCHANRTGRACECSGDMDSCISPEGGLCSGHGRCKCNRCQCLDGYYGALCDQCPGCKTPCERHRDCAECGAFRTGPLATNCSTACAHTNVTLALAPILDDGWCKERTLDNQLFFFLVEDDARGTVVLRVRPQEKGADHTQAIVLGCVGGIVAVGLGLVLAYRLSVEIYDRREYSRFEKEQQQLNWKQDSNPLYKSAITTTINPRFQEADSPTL
Format: cell-based
Experimental: (2) MAdCAM-1/α4β7 Integrin Binding Inhibitory Activity Evaluation Test
Each test substance was measured in terms of an ability to inhibit the MAdCAM-1 binding of a human B cell line, namely, a cell line RPMI-8866, which is known to express α4β7 integrin.
A solution of recombinant mouse MAdCAM-1/Fc (R&D Systems, Inc.) (0.75 μg/mL) diluted with a buffer A (carbonate buffer, pH 9.6) was added in an amount of 50 μL/well to a 96-well microtiter plate, followed by incubation at 4° C. overnight. After the plate was washed with PBS once, 150 μL/well of Block Ace (Snow Brand Milk Products Co., Ltd.) was added, followed by incubation at room temperature for 2 hours. After removal, the plate was washed with PBS once.
Then, 100 μL of the RPMI-8866 cells (2×10^6 cells/mL) and 100 μL of the test substance at each of various concentrations diluted with a binding buffer (DMEM containing 40 mM HEPES, 0.2% BSA, and 4 mM MnCl2) were added on the plate coated with the MAdCAM-1/Fc (5×10^5 cells/well), followed by incubation at 30° C. for 15 to 60 minutes. After the cells were bound to the wells, the plate was washed with PBS to remove unbound cells. A buffer C (PBS containing 1.5% Triton X-100) in an amount 50 μL/well was added to the plate to lyse the bound RPMI-8866 cells. After 30 μL of a substrate buffer (Promega, CytoTox 96 Non-Radioactive Cytotoxicity Assay) was added to 30 μL of the cell lysate, a reaction was allowed to proceed at room temperature in the dark for 30 minutes. After 30 μL of a stop solution (Promega, CytoTox 96 Non-Radioactive Cytotoxicity Assay) was added to each, and then an absorbance at 490 nm was measured using a plate reader. The absorbance obtained here represents a detection result of an activity of lactate dehydrogenase (LDH) eluted in the supernatant of each well, that is, the absorbance is proportional to the number of RPMI-8866 cells bound to the MAdCAM-1 and thus remaining on the plate. The test was performed in duplicate. Provided that the absorbance of the well containing no test substance was 100%, a cell binding rate with the test substance at each of the various concentrations was figured out, and a concentration IC50 which brought about 50% binding inhibition was calculated.

Row | SMILES | IC50 [nM]
1 | Cn1cnc2c1c(=O)n(-c1ccc(C[C@H](NC(=O)c3cc(F)c(NS(=O)(=O)c4ccc(NC(=O)C(C)(C)C)cc4)cc3F)C(=O)O)cc1)c(=O)n2C [Compound A43] | 0.42
2 | Cc1cn(C)c(=O)n(-c2ccc(C[C@H](NC(=O)c3cc(F)c(NS(=O)(=O)c4ccc(NC(=O)C#CC(C)(C)C)cc4)cc3F)C(=O)O)cn2)c1=O [Compound A68] | 5
3 | Cc1cc(=O)n(-c2ccc(C[C@H](NC(=O)c3cc(F)c(NS(=O)(=O)c4ccc(NC(=O)C(C)(C)C)cc4)cc3F)C(=O)O)cn2)c(=O)n1C [Compound A45] | 1.6
4 | Cn1c(=O)n(-c2ccc(C[C@H](NC(=O)c3cc(F)c(NS(=O)(=O)c4ccc(NC(=O)C5(c6ccccc6)CC5)cc4)cc3F)C(=O)O)cn2)c(=O)c2ccncc21 [Compound A29] | 0.95
5 | Cn1ccc(=O)n(-c2ccc(C[C@H](NC(=O)c3cc(F)c(NS(=O)(=O)c4ccc(NC(=O)C(C)(C)C)cc4)cc3F)C(=O)O)cn2)c1=O [Compound A53] | 2
6 | Cn1ccc(=O)n(-c2ccc(C[C@H](NC(=O)c3cc(F)c(NS(=O)(=O)c4ccc(NC(=O)C5(C(F)(F)F)CC5)cc4)cc3F)C(=O)O)cn2)c1=O [Compound A55] | 2.2
7 | Cn1c2c(c(=O)n(-c3ccc(C[C@H](NC(=O)c4cc(F)c(NS(=O)(=O)c5ccc(NC(=O)C(C)(C)C)cc5)cc4F)C(=O)O)cn3)c1=O)CCCC2 [Compound A52] | 0.7
8 | Cc1cn(C)c(=O)n(-c2ccc(C[C@H](NC(=O)c3cc(F)c(NS(=O)(=O)c4ccc(NC(=O)C(C)(C)CO)cc4)cc3F)C(=O)O)cn2)c1=O [Compound A63] | 2.4
9 | Cc1c(CO)c(=O)n(-c2ccc(C[C@H](NC(=O)c3cc(F)c(NS(=O)(=O)c4ccc(NC(=O)C(C)(C)C)cc4)cc3F)C(=O)O)cc2)c(=O)n1C [Compound A51] | 3.1
10 | Cn1c2c(c(=O)n(-c3ccc(C[C@H](NC(=O)c4cc(F)c(NS(=O)(=O)c5ccc(NC(=O)C(C)(C)C)cc5)cc4F)C(=O)O)cn3)c1=O)COCC2 [Compound A44] | 0.48
11 | Cn1c(=O)n(-c2ccc(C[C@H](NC(=O)c3cc(F)c(NS(=O)(=O)c4ccc(NC(=O)c5ccncc5)cc4)cc3F)C(=O)O)cc2)c(=O)c2ccncc21 [Compound A7] | 0.36
12 | CCC(CC)C(=O)Nc1ccc(S(=O)(=O)Nc2cc(F)c(C(=O)N[C@@H](Cc3ccc(-n4c(=O)c(C)c(C)n(C)c4=O)cc3)C(=O)O)cc2F)cc1 [Compound A4] | 0.85
13 | Cc1cn(C)c(=O)n(-c2ccc(C[C@H](NC(=O)c3cc(F)c(NS(=O)(=O)c4cc5cc(NC(=O)C(C)(C)C)ccc5[nH]4)cc3F)C(=O)O)cn2)c1=O [Compound A76] | 2
14 | Cn1c(=O)n(-c2ccc(C[C@H](NC(=O)c3cc(F)c(NS(=O)(=O)c4ccc(NC(=O)C(C)(C)CO)cc4)cc3F)C(=O)O)cc2)c(=O)c2ccncc21 [Compound A18] | 0.36
15 | Cn1c(=O)n(-c2ccc(C[C@H](NC(=O)c3cc(F)c(NS(=O)(=O)c4ccc(NC(=O)C5CCNCC5)cc4)cc3F)C(=O)O)cc2)c(=O)c2ccncc21 [Compound A6, (2S)-2-[[2,5-difluoro-4-[[4-(piperidine-4-carbonylamino)phenyl]sulfonylamino]benzoyl]amino]-3-[4-(1-methyl-2,4-dioxo-pyrido[3,4-d]pyrimidin-3-yl)phenyl]propanoic acid] | 2.4
16 | Cc1cc(=O)n(-c2ccc(C[C@H](NC(=O)c3cc(F)c(NS(=O)(=O)c4ccc(NC(=O)C(C)(C)C)cc4)cc3F)C(=O)O)nc2)c(=O)n1C [Compound A72] | 1.8
17 | Cc1c(C)n(C(C)C)c(=O)n(-c2ccc(C[C@H](NC(=O)c3cc(F)c(NS(=O)(=O)c4ccc(NC(=O)C(C)(C)C)cc4)cc3F)C(=O)O)cc2)c1=O [Compound A48] | 2
18 | Cn1c(=O)n(-c2ccc(C[C@H](NC(=O)c3cc(F)c(NS(=O)(=O)c4ccc(NC(=O)C5CCOCC5)cc4)cc3F)C(=O)O)cc2)c(=O)c2ccncc21 [Compound A14] | 0.38
19 | Cn1c2c(c(=O)n(-c3ccc(C[C@H](NC(=O)c4cc(F)c(NS(=O)(=O)c5ccc(NC(=O)C(C)(C)C)cc5)cc4F)C(=O)O)cc3)c1=O)COCC2 [Compound A33] | 0.45
20 | CN1CCc2c(n(C)c(=O)n(-c3ccc(C[C@H](NC(=O)c4cc(F)c(NS(=O)(=O)c5ccc(NC(=O)C(C)(C)C)cc5)cc4F)C(=O)O)cc3)c2=O)C1 [Compound A41] | 0.29
21 | Cc1cn(C)c(=O)n(-c2ccc(C[C@H](NC(=O)c3cc(F)c(NS(=O)(=O)c4ccc(NC(=O)C(C)(C)C)s4)cc3F)C(=O)O)cn2)c1=O [Compound A73] | 2.2
22 | Cc1c(C)n(C)c(=O)n(-c2ccc(C[C@H](NC(=O)c3cc(F)c(NS(=O)(=O)c4ccc(-n5ccc(C6CCOCC6)cc5=O)cc4)cc3F)C(=O)O)cc2)c1=O [Compound A34] | 3.4
23 | Cc1c(C)n(C)c(=O)n(-c2ccc(C[C@H](NC(=O)c3cc(F)c(NS(=O)(=O)c4cccc(NC(=O)C(C)(C)C)c4)cc3F)C(=O)O)cn2)c1=O [Compound A50] | 6.4
24 | COc1cc2c(=O)n(-c3ccc(C[C@H](NC(=O)c4cc(F)c(NS(=O)(=O)c5ccc(NC(=O)C(C)(C)C)cc5)cc4F)C(=O)O)cc3)c(=O)n(C)c2cn1 [Compound A36] | 0.94
25 | Cn1ccc(=O)n(-c2ccc(C[C@H](NC(=O)c3cc(F)c(NS(=O)(=O)c4ccc(NC(=O)C5CCCC5)cc4)cc3F)C(=O)O)cn2)c1=O [Compound A64] | 5.5
26 | Cn1c2c(c(=O)n(-c3ccc(C[C@H](NC(=O)c4cc(F)c(NS(=O)(=O)c5ccc(NC(=O)C(C)(C)C)cc5)cc4F)C(=O)O)cn3)c1=O)CCOC2 [Compound A40] | 0.74
27 | Cn1c(=O)n(-c2ccc(C[C@H](NC(=O)c3cc(F)c(NS(=O)(=O)c4ccc(NC(=O)C5(C(F)(F)F)CC5)cc4)cc3F)C(=O)O)cc2)c(=O)c2ccncc21 [Compound A24] | 0.3
